From patent US8431566B2, “Cyclopamine lactam analogs and methods of use thereof” (Infinity Discovery, Inc., priority 2007, dated 2013)

How the values were obtained:
[1] = system: Hedgehog pathway in C3H10T1/2 cells; test: C3H10T1/2 osteoblast differentiation assay (alkaline phosphatase readout, Shh-induced); format: cell-based; settings: Mus musculus, C3H 10T1/2, Approximate EC50 for inhibition, sonic Hedgehog 250 ng/ml, AP activity normalized against total protein
Text: Hedgehog pathway specific cancer cell killing effects may be ascertained using the following assay. C3H10T1/2 cells differentiate into osteoblasts when contacted with the sonic hedgehog peptide (Shh-N). Upon differentiation; these osteoblasts produce high levels of alkaline phosphatase (AP) which can be measured in an enzymatic assay (Nakamura, et al., BBRC (1997) 237:465). Compounds that block the differentiation of C3H10T1/2 into osteoblasts (a Shh dependent event) can therefore be identified by a reduction in AP production (van der Horst, et al., Bone (2003) 33:899). The assay details are described below. The results (EC50 for inhibition) of the differentiation assay are shown below in Table 1.
Mouse embryonic mesoderm fibroblasts C3H10T1/2 cells (obtained from ATCC) were cultured in Basal MEM Media (Gibco/Invitrogen) supplemented with 10% heat inactivated FBS (Hyclone), 50 units/ml penicillin and 50 ug/ml streptomycin (Gibco/Invitrogen) at 37° C. with 5% CO2 in air atmosphere.
C3H10T1/2 cells were plated in 96 wells with a density of 8×10^3 cells/well. Cells were grown to confluence (72 hrs). After sonic Hedgehog (250 ng/ml), and/or compound treatment, the cells were lysed in 110 μL, of lysis buffer (50 mM Tris pH 7.4, 0.1% Triton X 100), plates were sonicated and lysates spun through 0.2 μm PVDF plates (Corning). 40 μL of lysates was assayed for AP activity in alkaline buffer solution (Sigma) containing 1 mg/ml p-Nitrophenyl Phosphate. After incubating for 30 min at 37° C., the plates were read on an Envision plate reader at 405 nm. Total protein was quantified with a BCA protein assay kit from Pierce according to manufacturer's instructions. AP activity was normalized against total protein.

[2] = system: Gli-reponsive luciferase reporter in RS4-11; test: Gli-responsive luciferase reporter transient transfection assay, RS4-11; format: cell-based; settings: 1 uM, vehicle alone 12.97
Procedure: (§1) The activity of Compound 12 (1 uM) against three pre-B cell acute lymphocytic leukemia cell lines (REH, RS4-11, and Nalm-6) was studied, using a transient transfection assay in which a Gli-reponsive luciferase reporter was transiently transfected into cells. Treatment with Compound 12 repressed luciferase activity compared to a vehicle treated control (Table 4).

[3] = system: KG1a; test: MDS colony formation in methylcellulose, KG1a; format: cell-based, human; settings: 1.0 uM, 72 hours
Procedure: (§2) The ability of Compound 12 to inhibit the in vitro growth of human cell lines derived from patients with acute myeloid leukemia (AML, cell line U937) and myelodysplastic syndrome (MDS, cell line KG1 and KG1a) was studied. Each of the cell lines was treated for 72 hours with Compound 12 (1.0 uM) followed by plating in methylcellulose.

[4] = system: Gli-reponsive luciferase reporter in REH; test: Gli-responsive luciferase reporter transient transfection assay, REH; format: cell-based; settings: 1 uM, vehicle alone 6.73
Procedure: as §1

[5] = system: U937; test: AML colony formation in methylcellulose, U937; format: cell-based, human; settings: 1.0 uM, 72 hours
Procedure: as §2

[6] = system: RL; test: Non-Hodgkin's lymphoma colony formation in methylcellulose, RL; format: cell-based, human; settings: NHL, 1.0 uM, 72 hours
Procedure: (§3) The ability of Compound 12 to inhibit the in vitro growth of human cell lines derived from patients with non-Hodgkin's lymphoma (cell lines RL and Jeko-1) and Hodgkin's disease (cell line L428) was studied. Each of the cell lines was treated for 72 hours with Compound 12 (1.0 uM) followed by plating in methylcellulose.

[7] = system: KMS12; test: Multiple myeloma colony growth in methylcellulose, KMS12; format: cell-based, human; settings: treated 96 hours, plated in methylcellulose, colonies quantified 10-21 days later
Procedure: (§4) The ability of Compound 12 to inhibit the growth of multiple myeloma cells (MM) in vitro was tested, using human multiple myeloma cells lines (NCI-H929 and KMS12) and primary clinical bone marrow specimens derived from patients with MM. The cells were treated for 96 hours with Compound, washed, then plated in methylcellulose. Tumor colonies were quantified 10-21 days later as an indicator of cell growth potential following treatment.

[8] = system: Jeko-1; test: Non-Hodgkin's lymphoma colony formation in methylcellulose, Jeko-1; format: cell-based, human; settings: NHL, 1.0 uM, 72 hours
Procedure: as §3

[9] = system: primary clinical bone marrow specimens derived from patients with MM; test: Multiple myeloma colony growth in methylcellulose, primary clinical bone marrow specimens; format: cell-based, human; settings: clinical samples from MM patients; treated 96 hours, plated in methylcellulose
Procedure: as §4

[10] = system: Gli-1 mRNA; test: Medulloblastoma model (Ptch1/Hic1 subcutaneous allografts): Gli-1 mRNA expression in tumors; format: in vivo, mouse; settings: single oral dose, subcutaneously implanted medulloblastoma tumors, 8 hours post dose
Procedure: (§5) The activity of Compound 12 was also evaluated in a transgenic mouse model of medulloblastoma. Mice that are heterozygous for loss of function mutations in the tumor suppressors Patched1 (Ptch1) and Hypermethylated in Cancer (Hic1) develop spontaneous medulloblastoma. […] When passaged as subcutaneous allografts, these tumors grow aggressively and are Hedgehog pathway-dependent. This model was employed to evaluate the efficacy of orally administered Compound, and to correlate activity with drug exposure in plasma and tumors.

[11] = system: REH; test: Pre-B cell ALL colony formation in methylcellulose, REH; format: cell-based; settings: treated 72 hours
Procedure: (§6) The effect of Compound 12 on the growth of two of these cell lines, treated in vitro for 72 hours, was also studied. Following treatment, cells were washed and plated in methylcellulose.

[12] = system: human Gli-1; test: Pancreatic cancer model: q-RT-PCR of HH pathway genes in harvested tumors, human Gli-1; format: in vivo; settings: BXPC-3 tumors harvested 4 hours post the last dose; 30 mg/kg/day orally
Procedure: (§7) The activity of Compound 12 was further tested in a human pancreatic model: BXPC-3 cells were implanted subcutaneously into the flanks of the right legs of mice. On day 42 post-tumor implant, the mice were randomized into two groups to receive either Vehicle (30% HPBCD) or Compound 12. Compound 12 was administered orally at 30 mg/kg/day. After receiving 25 daily doses, Compound 12 reduced tumor volume growth by 16% when compared to the vehicle control. At the end of the study, the tumors were harvested 4 hours post the last dose to evaluate an on target response by q-RT-PCR analysis of the HH pathway genes.

[13] = system: medulloblastoma; test: Medulloblastoma model (Ptch1/Hic1 subcutaneous allografts): tumor growth; format: in vivo, mouse
Procedure: as §5

[14] = system: murine Gli-1 mRNA; test: Pancreatic cancer model: q-RT-PCR of HH pathway genes in harvested tumors, murine Gli-1; format: in vivo; settings: BXPC-3 tumors harvested 4 hours post the last dose; 30 mg/kg/day orally
Procedure: as §7

[15] = system: NCI-H929; test: Multiple myeloma colony growth in methylcellulose, NCI-H929; format: cell-based, human; settings: treated 96 hours, plated in methylcellulose, colonies quantified 10-21 days later
Procedure: as §4

[16] = system: L428; test: Hodgkin's disease colony formation in methylcellulose, L428; format: cell-based, human; settings: HD, 1.0 uM, 72 hours
Procedure: as §3

[17] = system: KG1; test: MDS colony formation in methylcellulose, KG1; format: cell-based, human; settings: 1.0 uM, 72 hours
Procedure: as §2

[18] = system: Gli-reponsive luciferase reporter in Nalm-6; test: Gli-responsive luciferase reporter transient transfection assay, Nalm-6; format: cell-based; settings: 1 uM, vehicle alone 8.42
Procedure: as §1

[19] = system: BXPC-3 cells; test: Pancreatic cancer model: subcutaneous BXPC-3 tumors in mice, tumor volume; format: in vivo, human; settings: BXPC-3 subcutaneous in mice; orally 30 mg/kg/day, 25 daily doses
Procedure: as §7

[20] = system: RS4-11; test: Pre-B cell ALL colony formation in methylcellulose, RS4-11; format: cell-based; settings: treated 72 hours
Procedure: as §6

[21] = 2° plating (replating of colonies)

In the case of CC1=C2C[C@H]3[C@@H](CC[C@H]4NC(=O)CC[C@@]43C)C2CC[C@@]2(C1)O[C@@H]1C[C@H](C)CN[C@H]1[C@H]2C (some centres unmarked) [Compound 1], the EC50 [1] is reported as less than 20 nM.

With CC1=C2C[C@H]3[C@@H](CC[C@@H]4NC(=O)CC[C@@]43C)[C@@H]2CC[C@@]2(C1)O[C@@H]1C[C@H](C)CN[C@H]1[C@H]2C [Compound 11] the EC50 [1] was greater than 100 nM.

In the case of CC1=C2C[C@H]3[C@@H](CC[C@@H]4CNC(=O)CC[C@@]43C)[C@@H]2CC[C@@]2(C1)O[C@@H]1C[C@H](C)CN[C@H]1[C@H]2C [Compound 12], the “Relative luc activity (+ Compound)” value [2] is reported as 1.31, the “% colony formation with Compound 12 (relative to vehicle control)” value [3] is reported as 34.6% and the “Relative luc activity (+ Compound)” value [4] is reported as 1.12. For the same compound, the “% colony formation with Compound 12 (relative to vehicle control)” value [5] was 43.4%, the “% colony formation with Compound 12 (relative to vehicle control)” value [6] was 14.3% and the “% growth of cells (untreated control 100%)” value (from here on “% growth of cells”) [7] was “less than 25%”. The “% colony formation with Compound 12 (relative to vehicle control)” value [8] was 27.4%, the “% growth of cells” value [9] was “less than 25%” and the “HH pathway regulation measured by Gli-1 mRNA expression” value [10] was “dose-dependent down-regulation”. For the same compound, the “% colony formation with Compound (relative to vehicle control) - 1° plating” value ([11]; 1° plating) was 63%, the “% colony formation with Compound (relative to vehicle control) - 2° plating” value [11, 21] was 9% and the “human Gli-1 modulation (q-RT-PCR)” value [12] was “no modulation”. For the same compound, the ED50 ([13]; Mus musculus, daily oral dosing, medulloblastoma allografts, read-out: approximate effective daily oral dose for 50% inhibition of tumor growth (ED50)) was 3 to 7.5 mg/kg, the tumor regression ([13]; daily (QD) PO administration, at higher doses) was “frank tumor regression seen at higher doses” and the “inhibition of tumor growth” value ([13]; daily (QD) PO administration, medulloblastoma allografts) was “dose dependent inhibition of tumor growth”. The “murine Gli-1 mRNA levels (q-RT-PCR) compared to Vehicle treated group” value [14] was “robust down-regulation”, the “% growth of cells” value [15] was “less than 25%” and the EC50 [1] was 20 to 100 nM. The “% colony formation with Compound 12 (relative to vehicle control)” value [16] was 21.4%, the “% colony formation with Compound 12 (relative to vehicle control)” value [17] was 25.1% and the “Relative luc activity (+ Compound)” value [18] was 1.44. For the same compound, the “reduced tumor volume growth compared to the vehicle control” value [19] was 16%, the “% colony formation with Compound (relative to vehicle control) - 1° plating” value ([20]; 1° plating) was 71% and the “% colony formation with Compound (relative to vehicle control) - 2° plating” value [20, 21] was 11%.

Work on CC1=C2C[C@H]3[C@@H](CC[C@@H]4CC(=O)NCC[C@@]43C)[C@@H]2CC[C@@]2(C1)O[C@@H]1C[C@H](C)CN[C@H]1[C@H]2C [Compound 19] yielded an EC50 [1] greater than 100 nM.

For CC1=C2C[C@H]3[C@@H](CC[C@@H]4CN(C)C(=O)CC[C@@]43C)[C@@H]2CC[C@@]2(C1)O[C@@H]1C[C@H](C)CN[C@H]1[C@H]2C [Compound 31], the EC50 [1] was 20 to 100 nM.

CC1=C2C[C@H]3[C@@H](CC[C@@H]4CN(C)C(=O)CC[C@@]43C)[C@@H]2CC[C@@]2(C1)O[C@@H]1C[C@H](C)CN(S(C)(=O)=O)[C@H]1[C@H]2C [Compound 35] gave an EC50 [1] greater than 100 nM.

Work on CC1=C2C[C@H]3[C@@H](CC[C@@H]4CNC(=O)CC[C@@]43C)[C@@H]2CC[C@@]2(C1)O[C@@H]1C[C@H](C)CN(S(C)(=O)=O)[C@H]1[C@H]2C [Compound 40] yielded an EC50 [1] of less than 20 nM.

For CC1=C2C[C@H]3[C@@H](CCC4=CN(C)C(=O)CC[C@@]43C)[C@@H]2CC[C@@]2(C1)O[C@@H]1C[C@H](C)CN[C@H]1[C@H]2C [Compound 41], the EC50 [1] was greater than 100 nM.

Work on CC1=C2C[C@H]3[C@@H](CC[C@@H]4CCN(S(C)(=O)=O)CC[C@@]43C)[C@@H]2CC[C@@]2(C1)O[C@@H]1C[C@H](C)CN(S(C)(=O)=O)[C@H]1[C@H]2C [Compound 50] yielded an EC50 [1] greater than 100 nM.
